This test addresses CSF-1R (Homo sapiens, UniProt P07333). Put plainly: Peptide (non-phosphorylated) assay, fluorescence polarization competition immunoassay. Format: biochemical. As to conditions: 0.7 nM CSF-1R, 308 μM SYEGNSYTFIDPTQ peptide, 1 mM ATP, 80 min; mean of at least three determinations; read-out: c-fms Peptide IC50. On the procedure:
The kinase reaction was initiated by adding 1 μL of 10 mM ATP in assay buffer. […] Positive and negative control wells were included on each plate, where 4% DMSO in assay buffer was substituted for the compound; in addition, positive control wells received 1.2 μL of 50 mM EDTA before the start of the reaction.
The plates were covered and incubated at room temperature for 80 min. Reactions were stopped by addition of 1.2 μL of 50 mM EDTA. Each well then received 10 μL of a 1:1:3 mixture of 10× anti-phosphotyrosine antibody, 10×PTK green tracer, and FP dilution buffer, respectively (Cat. # P2837, Invitrogen, Carlsbad, Calif.). The plates were covered, incubated for 30 min at room temperature, and the fluorescence polarization was read on an Analyst plate reader (Molecular Devices).

CSF-1R, sequence (P07333 20-972): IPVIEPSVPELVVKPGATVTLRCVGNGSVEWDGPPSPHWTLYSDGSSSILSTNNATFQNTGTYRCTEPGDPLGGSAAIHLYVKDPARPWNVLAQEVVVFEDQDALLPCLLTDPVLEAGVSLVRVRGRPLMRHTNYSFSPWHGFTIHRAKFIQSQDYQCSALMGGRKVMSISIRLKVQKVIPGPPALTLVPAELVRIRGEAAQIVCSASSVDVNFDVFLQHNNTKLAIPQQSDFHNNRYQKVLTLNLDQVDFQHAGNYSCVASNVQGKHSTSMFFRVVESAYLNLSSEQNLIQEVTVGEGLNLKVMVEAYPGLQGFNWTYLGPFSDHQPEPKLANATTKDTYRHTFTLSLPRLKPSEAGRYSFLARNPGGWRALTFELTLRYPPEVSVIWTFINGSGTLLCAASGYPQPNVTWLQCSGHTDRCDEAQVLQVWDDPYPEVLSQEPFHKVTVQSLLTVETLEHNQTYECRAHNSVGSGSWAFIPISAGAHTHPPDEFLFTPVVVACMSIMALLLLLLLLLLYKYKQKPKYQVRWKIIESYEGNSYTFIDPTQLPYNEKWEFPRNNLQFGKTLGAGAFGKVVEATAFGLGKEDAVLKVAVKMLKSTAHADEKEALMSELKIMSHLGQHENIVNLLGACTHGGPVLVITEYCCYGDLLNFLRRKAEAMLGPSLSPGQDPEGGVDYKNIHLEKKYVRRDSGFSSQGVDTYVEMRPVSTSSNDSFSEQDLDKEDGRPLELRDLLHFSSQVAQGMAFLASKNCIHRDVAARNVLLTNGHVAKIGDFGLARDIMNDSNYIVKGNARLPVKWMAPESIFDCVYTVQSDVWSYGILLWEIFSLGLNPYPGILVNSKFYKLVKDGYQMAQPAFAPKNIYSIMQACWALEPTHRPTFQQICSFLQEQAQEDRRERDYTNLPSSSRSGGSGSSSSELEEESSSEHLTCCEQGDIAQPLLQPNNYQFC

As for `CONC(=O)c1cn(-c2cccc(C(F)(F)F)c2)c2nc(Nc3ccc(C4CCN(C)CC4)cc3)ncc2c1=O`, the IC50 is 0.8 nM.
In the case of `CONC(=O)c1cn(-c2ccc3c(c2)CCC3)c2nc(Nc3ccc(CCN4CCCC(F)(F)C4)cc3)ncc2c1=O` it was 1.7 nM; in that of `CC(C)NC(=O)c1cn(-c2ccc3c(c2)CCC3)c2nc(Nc3cccc(N4CCNCC4)c3)ncc2c1=O` [Cpd 1, 8-indan-5-yl-5-oxo-2-(3-piperazin-1-yl-phenylamino)-5,8-dihydro-pyrido[2,3-d]pyrimidine-6-carboxylic acid isopropylamide], 4.5 nM; in that of `CONC(=O)c1cn(-c2ccc3c(c2)CCC3)c2nc(Nc3cccc(N4CCNCC4)c3)ncc2c1=O` [Cpd 2, 8-indan-5-yl-5-oxo-2-(3-piperazin-1-yl-phenylamino)-5,8-dihydro-pyrido[2,3-d]pyrimidine-6-carboxylic acid methoxy-amide], 0.56 nM.
In the case of `CN1CCN(CCc2ccc(Nc3ncc4c(=O)c(C(N)=O)cn(-c5ccc(F)c(Cl)c5)c4n3)cc2)CC1` [Cpd 3, 8-(3-chloro-4-fluoro-phenyl)-2-{4-[2-(4-methyl-piperazin-1-yl)-ethyl]-phenylamino}-5-oxo-5,8-dihydro-pyrido[2,3-d]pyrimidine-6-carboxylic acid amide] it was 28 nM; in that of `CONC(=O)c1cn(-c2ccc(F)c(Cl)c2)c2nc(Nc3ccc(CCN4CCN(C)CC4)cc3)ncc2c1=O` [Cpd 4, 8-(3-chloro-4-fluoro-phenyl)-2-{4-[2-(4-methyl-piperazin-1-yl)-ethyl]-phenylamino}-5-oxo-5,8-dihydro-pyrido[2,3-d]pyrimidine-6-carboxylic acid methoxy amide], 2.2 nM; in that of `NC(=O)c1cn(-c2ccc3c(c2)CCC3)c2nc(Nc3ccc(CCN4CCCC4)cc3)ncc2c1=O` [Cpd 5, 8-indan-5-yl-5-oxo-2-[4-(2-pyrrolidin-1-yl-ethyl)-phenylamino]-5,8-dihydro-pyrido[2,3-d]pyrimidine-6-carboxylic acid amide], 1.5 nM.
For the compound `NC(=O)c1cn(-c2ccc3c(c2)CCC3)c2nc(Nc3ccc(N4CCC[C@H]4CO)cc3)ncc2c1=O` [Cpd 6, (S)-2-[4-(2-hydroxymethyl-pyrrolidin-1-yl)-phenylamino]-8-indan-5-yl-5-oxo-5,8-dihydro-pyrido[2,3-d]pyrimidine-6-carboxylic acid amide], the IC50 is 3.1 nM.
In the case of `CONC(=O)c1cn(-c2ccc3c(c2)CCC3)c2nc(Nc3ccc(N4CCC[C@H]4CO)cc3)ncc2c1=O` [Cpd 7, (S)-2-[4-(2-hydroxymethyl-pyrrolidin-1-yl)-phenylamino]-8-indan-5-yl-5-oxo-5,8-dihydro-pyrido[2,3-d]pyrimidine-6-carboxylic acid methoxy-amide] it was 1.7 nM.
In the case of `NC(=O)c1cn(-c2ccc3c(c2)CCC3)c2nc(Nc3ccc(CN4CCCC4=O)cc3)ncc2c1=O` [Cpd 8, 8-indan-5-yl-5-oxo-2-[4-(2-oxo-pyrrolidin-1-ylmethyl)-phenylamino]-5,8-dihydro-pyrido[2,3-d]pyrimidine-6-carboxylic acid amide] it was 1.6 nM; in that of `CONC(=O)c1cn(-c2ccc3c(c2)CCC3)c2nc(Nc3ccc(CN4CCCC4=O)cc3)ncc2c1=O` [Cpd 9, 8-indan-5-yl-5-oxo-2-[4-(2-oxo-pyrrolidin-1-ylmethyl)-phenylamino]-5,8-dihydro-pyrido[2,3-d]pyrimidine-6-carboxylic acid methoxy-amide], 0.24 nM.
In the case of `CONC(=O)c1cn(C2CCCCC2)c2nc(Nc3ccc(N4CCCC4)cc3)ncc2c1=O` [Cpd 10, 8-cyclohexyl-5-oxo-2-(4-pyrrolidin-1-yl-phenylamino)-5,8-dihydro-pyrido[2,3-d]pyrimidine-6-carboxylic acid methoxy-amide] it was 2.1 nM; in that of `CONC(=O)c1cn(C2CCCCC2)c2nc(Nc3ccc(C(=O)N4CCCC4)cc3)ncc2c1=O` [Cpd 11, 8-cyclohexyl-5-oxo-2-[4-(pyrrolidine-1-carbonyl)-phenylamino]-5,8-dihydro-pyrido[2,3-d]pyrimidine-6-carboxylic acid methoxy-amide], more than 300 nM; in that of `CONC(=O)c1cn(C2CCCCC2)c2nc(Nc3ccc(CN4CCCC4=O)cc3)ncc2c1=O` [Cpd 12, 8-cyclohexyl-5-oxo-2-[4-(2-oxo-pyrrolidin-1-ylmethyl)-phenylamino]-5,8-dihydro-pyrido[2,3-d]pyrimidine-6-carboxylic acid methoxy-amide], 1.3 nM.
As to `CONC(=O)c1cn(C2CCCCC2)c2nc(Nc3ccc(CCN4CCCC4=O)cc3)ncc2c1=O` [Cpd 13, 8-cyclohexyl-5-oxo-2-{4-[2-(2-oxo-pyrrolidin-1-yl)-ethyl]-phenylamino}-5,8-dihydro-pyrido[2,3-d]pyrimidine-6-carboxylic acid methoxy-amide], the IC50 stood at 1.6 nM.
In the case of `CCONC(=O)c1cn(C2CCCCC2)c2nc(Nc3ccc(CCN4CCCC4)cc3)ncc2c1=O` [Cpd 15, 8-cyclohexyl-5-oxo-2-[4-(2-pyrrolidin-1-yl-ethyl)-phenylamino]-5,8-dihydro-pyrido[2,3-d]pyrimidine-6-carboxylic acid ethoxy-amide] it was 0.19 nM; in that of `CC(C)ONC(=O)c1cn(C2CCCCC2)c2nc(Nc3ccc(CCN4CCCC4)cc3)ncc2c1=O` [Cpd 16, 8-cyclohexyl-5-oxo-2-[4-(2-pyrrolidin-1-yl-ethyl)-phenylamino]-5,8-dihydro-pyrido[2,3-d]pyrimidine-6-carboxylic acid isopropoxy-amide], 0.64 nM.
Consider `O=C(NO)c1cn(C2CCCCC2)c2nc(Nc3ccc(CCN4CCCC4)cc3)ncc2c1=O` [Cpd 17, 8-cyclohexyl-5-oxo-2-[4-(2-pyrrolidin-1-yl-ethyl)-phenylamino]-5,8-dihydro-pyrido[2,3-d]pyrimidine-6-carboxylic acid hydroxyamide], for which the half-inhibitory concentration (IC50) was found to be 0.94 nM.
In the case of `CONC(=O)c1cn(C2CCCCC2)c2nc(Nc3ccc(CCN4CCN(C)CC4)cc3)ncc2c1=O` [Cpd 18, 8-cyclohexyl-2-{4-[2-(4-methyl-piperazin-1-yl)-ethyl]-phenylamino}-5-oxo-5,8-dihydro-pyrido[2,3-d]pyrimidine-6-carboxylic acid methoxy-amide] it was 0.3 nM; in that of `CCONC(=O)c1cn(C2CCCCC2)c2nc(Nc3ccc(CCN4CCN(C)CC4)cc3)ncc2c1=O` [Cpd 19, 8-cyclohexyl-2-{4-[2-(4-methyl-piperazin-1-yl)-ethyl]-phenylamino}-5-oxo-5,8-dihydro-pyrido[2,3-d]pyrimidine-6-carboxylic acid ethoxy-amide], 1 nM; in that of `CONC(=O)c1cn(C2CCCCC2)c2nc(Nc3ccc(CCN4CCOCC4)cc3)ncc2c1=O` [Cpd 20, 8-cyclohexyl-2-[4-(2-morpholin-4-yl-ethyl)-phenylamino]-5-oxo-5,8-dihydro-pyrido[2,3-d]pyrimidine-6-carboxylic acid methoxy-amide], 3 nM.
Take `CCONC(=O)c1cn(C2CCCCC2)c2nc(Nc3ccc(CCN4CCOCC4)cc3)ncc2c1=O` [Cpd 21, 8-cyclohexyl-2-[4-(2-morpholin-4-yl-ethyl)-phenylamino]-5-oxo-5,8-dihydro-pyrido[2,3-d]pyrimidine-6-carboxylic acid ethoxy-amide]: the IC50 turned out to be 1 nM.

For orientation: IC50 means the midpoint of a concentration-inhibition curve.

The values above are taken from US20080114007A1 (priority 2006, published 2008).
